Where a name gives a salt, the structure may show the parent alone.

The assay has as its system KG-1 cell line. Briefly: Effect of test compounds on KG-1 cell proliferation (Cell Titer-Glo viability, 72 hours). It is filed as cell-based. As to conditions: Homo sapiens, read-out: FCA Prolif Cell TiterGlo KG-1 72 h (IC50). Here is the method: The anti-proliferative activity of the test compound was evaluated on KG-1 cell line (American Type Culture Collection [ATCC]: catalogue number ATCC® CCL-246™) at 72 hours post-treatment. The seeding density for KG-1 was optimized to ensure assay linearity in 384-well plates.
Increasing concentrations of the test compound (0.5 nM to 10 μM) were spotted in a 10-point serial dilution fashion (3-fold dilution) in duplicate via an acoustic dispenser (EDC ATS-100) into an empty 384-well plate. The dimethyl sulfoxide (DMSO) concentration was kept constant for a final assay concentration of 0.1% DMSO. Prior to testing, KG-1 cells were grown in RPMI-1640 (Roswell Park Memorial Institute—1640) medium with 10% FBS (fetal bovine serum: HyClone) and expanded in culture flasks to provide sufficient amounts of starting material. Cells were then diluted to 5000 cells per well, in a 50 μL volume and added directly to the compound-spotted 384-well plates. Cells were allowed to grow for 72 hours in 5% CO2 at 37° C. At the time when exposure of cells to compound began (t0), initial viable cell number was assessed via Cell Titer-Glo® Luminescent Cell Viability Assay at a 1 vol:2 vol ratio according to manufacturer's instructions (Promega Corporation, Madison, Wis.) by quantifying the level of luminescence generated by adenosine-5′-triphosphate (ATP) present in viable cells. After 72 hours, cell viability of t-treated cells was assessed via Cell Titer-Glo® and read for luminescence.
Consider `COc1ccc(C(F)(F)C(=O)NCc2ccc3c(c2)CN(C2CCC(=O)NC2=O)C3=O)cc1` (centres unmarked) [Example 3], for which the IC50 fell in the range of 100 to 10000 nM.
Next, `O=C1CCC(N2Cc3cc(CNC(=O)C(F)(F)c4ccc(F)cc4)ccc3C2=O)C(=O)N1` (centres unmarked) [Example 5]: 10 to 50 nM; `O=C1CCC(N2Cc3cc(CNC(=O)C(F)(F)c4ccccc4Cl)ccc3C2=O)C(=O)N1` (centres unmarked) [Example 8]: 100 to 10000 nM; `O=C1CCC(N2Cc3cc(CNC(=O)C(F)(F)c4c(F)cccc4F)ccc3C2=O)C(=O)N1` (centres unmarked) [Example 14]: 100 to 10000 nM.
Next, `Cc1ccccc1C(F)(F)C(=O)NCc1ccc2c(c1)CN(C1CCC(=O)NC1=O)C2=O` (centres unmarked) [Example 15, N-((2-(2,6-dioxopiperidin-3-yl)-1-oxoisoindolin-5-yl)methyl)-2,2-difluoro-2-(o-tolyl)acetamide]: 10 to 50 nM; `CC(C)Oc1ccc(C(F)(F)C(=O)NCc2ccc3c(c2)CN(C2CCC(=O)NC2=O)C3=O)cc1` (centres unmarked) [Example 22]: 10 to 50 nM.
Next, `O=C1CCC(N2Cc3cc(CNC(=O)C(F)(F)c4ccc(F)c(F)c4)ccc3C2=O)C(=O)N1` (centres unmarked) [Example 23]: 100 to 10000 nM; `O=C1CCC(N2Cc3cc(CNC(=O)C(F)(F)c4cccc(F)c4)ccc3C2=O)C(=O)N1` (centres unmarked) [Example 24]: 100 to 10000 nM.
Regarding `O=C1CCC(N2Cc3cc(CNC(=O)C(F)(F)C4(O)CCCC4)ccc3C2=O)C(=O)N1` (centres unmarked) [Example 66], the IC50 was in the range of 100 to 10000 nM.
For the compound `CC(C)(F)c1ccc(C(F)(F)C(=O)NCc2ccc3c(c2)CN(C2CCC(=O)NC2=O)C3=O)cc1` (centres unmarked) [Example 92], the IC50 lay within 50 to 100 nM.
Next, `CC(C)(C)c1ccc(C(F)(F)C(=O)NCc2ccc3c(c2)CN(C2CCC(=O)NC2=O)C3=O)nc1` (centres unmarked) [Example 96, hydrochloride]: 10 to 50 nM; `O=C1CCC(N2Cc3cc(CNC(=O)C(F)(F)c4ccc(C5CC5)cn4)ccc3C2=O)C(=O)N1` (centres unmarked) [Example 97]: 100 to 10000 nM; `O=C1CCC(N2Cc3cc(CNC(=O)C(F)(F)c4ccc(F)cc4OC(F)(F)F)ccc3C2=O)C(=O)N1` (centres unmarked) [Example 100]: 50 to 100 nM.
With `CS(=O)(=O)c1cccc(C(F)(F)C(=O)NCc2ccc3c(c2)CN(C2CCC(=O)NC2=O)C3=O)c1` (centres unmarked) [Example 103] the figure was 100 to 10000 nM.
Next, `Nc1ncc(C(F)(F)C(=O)NCc2ccc3c(c2)CN(C2CCC(=O)NC2=O)C3=O)cn1` (centres unmarked) [Example 104]: 100 to 10000 nM; `Cn1nc(C(F)(F)C(=O)NCc2ccc3c(c2)CN(C2CCC(=O)NC2=O)C3=O)ccc1=O` (centres unmarked) [Example 107]: 100 to 10000 nM; `CN1CCN(c2cccc(C(F)(F)C(=O)NCc3ccc4c(c3)CN(C3CCC(=O)NC3=O)C4=O)c2)CC1` (centres unmarked) [Example 114, hydrochloride]: 100 to 10000 nM.

Values taken from patent US9968596B2 (Celgene Corporation, priority 2014, dated 2018).
